Measurements taken from the CheMixHub viscosity set.
± gives the uncertainty stated by the source.

Assay: xn = mol fraction of the nth substance listed

NC(N)=O + CN(C)C=O
101 kPa
Conditions	viscosity [mPa·s]
293.15 K, x1 = 0.00259	0.8641 ± 0.0059
293.15 K, x1 = 0.004089	0.8696 ± 0.0059
293.15 K, x1 = 0.005542	0.8749 ± 0.006
293.15 K, x1 = 0.007625	0.8829 ± 0.006
293.15 K, x1 = 0.008542	0.8861 ± 0.006
293.15 K, x1 = 0.009703	0.8909 ± 0.0061
293.15 K, x1 = 0.01132	0.8964 ± 0.0061
293.15 K, x1 = 0.01367	0.906 ± 0.0061
298.15 K, x1 = 0.002771	0.8095 ± 0.0056
298.15 K, x1 = 0.00599	0.8163 ± 0.0056
298.15 K, x1 = 0.0088	0.8219 ± 0.0056
298.15 K, x1 = 0.01098	0.8295 ± 0.0057
298.15 K, x1 = 0.01142	0.8371 ± 0.0057
298.15 K, x1 = 0.01232	0.8421 ± 0.0058
298.15 K, x1 = 0.01349	0.8468 ± 0.0058
298.15 K, x1 = 0.0148	0.8557 ± 0.0058
303.15 K, x1 = 0.001637	0.7596 ± 0.0052
303.15 K, x1 = 0.003093	0.7641 ± 0.0053
303.15 K, x1 = 0.004755	0.7693 ± 0.0053
303.15 K, x1 = 0.005964	0.7728 ± 0.0053
303.15 K, x1 = 0.007418	0.7775 ± 0.0054
303.15 K, x1 = 0.008306	0.7799 ± 0.0054
303.15 K, x1 = 0.01015	0.7857 ± 0.0054
303.15 K, x1 = 0.01168	0.7908 ± 0.0054
308.15 K, x1 = 0.001989	0.7171 ± 0.005
308.15 K, x1 = 0.003566	0.7214 ± 0.005
308.15 K, x1 = 0.005107	0.7257 ± 0.005
308.15 K, x1 = 0.006768	0.73 ± 0.0051
308.15 K, x1 = 0.008236	0.7345 ± 0.0051
308.15 K, x1 = 0.009277	0.7372 ± 0.0051
308.15 K, x1 = 0.01039	0.7403 ± 0.0051
308.15 K, x1 = 0.01098	0.7421 ± 0.0051

CN1CCN(C)C1=O + CCCCCCCCn1cc[n+](C)c1.[Cl-]
100 kPa
Conditions	viscosity [mPa·s]
293.15 K, x2 = 0.6016	985.8 ± 100
313.15 K, x2 = 0.7994	773.5 ± 72
318.15 K, x2 = 0.105	3.715 ± 0.16
323.15 K, x2 = 0.7994	404.5 ± 31

CCCCCCCCCCO + CCCO
viscosity [mPa·s], 101 kPa
Conditions	298.15 K	308.15 K	318.15 K
x2 = 0.05	10.52 ± 0.11	7.206 ± 0.071	5.14 ± 0.049
x2 = 0.1	10.05 ± 0.1	6.914 ± 0.068	4.927 ± 0.047
x2 = 0.15	9.562 ± 0.095	6.633 ± 0.065	4.716 ± 0.046
x2 = 0.2	9.064 ± 0.089	6.36 ± 0.062	4.508 ± 0.044
x2 = 0.25	8.557 ± 0.083	6.093 ± 0.059	4.306 ± 0.042
x2 = 0.3	8.046 ± 0.077	5.831 ± 0.056	4.109 ± 0.04
x2 = 0.35	7.534 ± 0.071	5.572 ± 0.052	3.921 ± 0.039
x2 = 0.4	7.023 ± 0.065	5.314 ± 0.049	3.741 ± 0.037
x2 = 0.45	6.517 ± 0.06	5.058 ± 0.046	3.572 ± 0.036
x2 = 0.5	6.018 ± 0.054	4.802 ± 0.043	3.416 ± 0.034
x2 = 0.55	5.529 ± 0.049	4.547 ± 0.039	3.275 ± 0.033
x2 = 0.6	5.052 ± 0.044	4.293 ± 0.036	3.15 ± 0.031
x2 = 0.65	4.589 ± 0.039	4.04 ± 0.033	3.044 ± 0.03
x2 = 0.7	4.142 ± 0.035	3.79 ± 0.03	2.96 ± 0.029
x2 = 0.75	3.712 ± 0.03	3.543 ± 0.027	2.9 ± 0.028
x2 = 0.8	3.303 ± 0.026	3.301 ± 0.024	2.866 ± 0.027
x2 = 0.85	2.915 ± 0.023	3.065 ± 0.022	2.862 ± 0.027
x2 = 0.9	2.549 ± 0.019	2.839 ± 0.021	2.89 ± 0.026
x2 = 0.95	2.207 ± 0.016	2.624 ± 0.021	2.953 ± 0.026

c1ccc(Oc2ccccc2)cc1 + CCOc1ccccc1
298.15 K, 101 kPa
Conditions	viscosity [mPa·s]
x2 = 0.1367	3.264 ± 0.045
x2 = 0.2072	3.003 ± 0.042
x2 = 0.3253	2.63 ± 0.038
x2 = 0.3731	2.455 ± 0.036
x2 = 0.5105	2.096 ± 0.032
x2 = 0.6002	1.862 ± 0.029
x2 = 0.7037	1.632 ± 0.026
x2 = 0.8127	1.451 ± 0.024
x2 = 0.9006	1.309 ± 0.022

Cc1ccccc1C + Cc1ccc(C)cc1
101.3 kPa
Conditions	viscosity [mPa·s]
298.15 K, x1 = 0.0748	0.6114 ± 0.0052
298.15 K, x1 = 0.1866	0.6242 ± 0.0053
298.15 K, x1 = 0.3032	0.641 ± 0.0054
298.15 K, x1 = 0.4147	0.6549 ± 0.0055
298.15 K, x1 = 0.5702	0.6779 ± 0.0057
298.15 K, x1 = 0.6823	0.6995 ± 0.0058
298.15 K, x1 = 0.8109	0.7176 ± 0.0059
298.15 K, x1 = 0.9402	0.7417 ± 0.0061
303.15 K, x1 = 0.0902	0.5764 ± 0.005
303.15 K, x1 = 0.2065	0.5904 ± 0.0051
303.15 K, x1 = 0.3178	0.604 ± 0.0052
303.15 K, x1 = 0.4339	0.6204 ± 0.0053
303.15 K, x1 = 0.4577	0.6237 ± 0.0053
303.15 K, x1 = 0.5832	0.642 ± 0.0054
303.15 K, x1 = 0.6243	0.6474 ± 0.0055
303.15 K, x1 = 0.7864	0.6729 ± 0.0056
303.15 K, x1 = 0.8933	0.6889 ± 0.0057
